Reference: ChEMBL document CHEMBL2429780, “Synthesis, antimicrobial and cytotoxic activity of 2-azetidinone derivatives of pyridyl benzimidazoles” (Med Chem Res, 2013)
Activity calls are given as the source filed them.

Columns and labels:
Format in all cases: functional, organism-based
[1] = tested on: Staphylococcus aureus; experiment: Antibacterial activity against Staphylococcus aureus MTCC 96 assessed as growth inhibition at 12.5 to 1000 ug/mL after 24 hrs by broth dilution assay
[2] = tested on: Escherichia coli; experiment: Antibacterial activity against Escherichia coli MTCC 443 assessed as growth inhibition at 12.5 to 1000 ug/mL after 24 hrs by broth dilution assay
[3] = tested on: Candida albicans; experiment: Antifungal activity against Candida albicans assessed as growth inhibition at 12.5 to 1000 ug/mL after 48 hrs by broth dilution assay
[4] = tested on: Aspergillus niger; experiment: Antifungal activity against Aspergillus niger assessed as growth inhibition at 12.5 to 1000 ug/mL after 48 hrs by broth dilution assay
[5] = tested on: Streptococcus pyogenes; experiment: Antibacterial activity against Streptococcus pyogenes MTCC 442 assessed as growth inhibition at 12.5 to 1000 ug/mL after 24 hrs by broth dilution assay
[6] = tested on: Aspergillus clavatus; experiment: Antifungal activity against Aspergillus clavatus assessed as growth inhibition at 12.5 to 1000 ug/mL after 48 hrs by broth dilution assay
[7] = tested on: Pseudomonas aeruginosa; experiment: Antibacterial activity against Pseudomonas aeruginosa MTCC 1688 assessed as growth inhibition at 12.5 to 1000 ug/mL after 24 hrs by broth dilution assay

Measured: growth inhibition (GI)

N#Cc1c(-c2ccccc2O)cc(-c2nc3ccccc3[nH]2)nc1N
inactive: all assays above

Cc1ccc(-c2cc(-c3nc4ccccc4[nH]3)nc(N)c2C#N)cc1
inactive: all assays above

COc1ccc(-c2cc(-c3nc4ccccc4[nH]3)nc(N)c2C#N)cc1
inactive: all assays above

N#Cc1c(-c2ccccc2Cl)cc(-c2nc3ccccc3[nH]2)nc1N
inactive: all assays above

Cc1ccccc1-c1cc(-c2nc3ccccc3[nH]2)nc(N)c1C#N
inactive: all assays above
